Read-outs that look alike come from different tables or passages of the source.
Columns and labels:
Type in all cases: binding
S100A4 [1] = target: T1, S100A4 (Homo sapiens, UniProt P26447); assay: LC-ESI MS of covalent adducts
C3R/C86S S100A4 [2] = target: T2, C3R/C86S S100A4 (Homo sapiens, UniProt P26447, C3R/C86S); assay: competitive fluorescence anisotropy against FITC-MIIA
C3R/C86S S100A4 [3] = target: T2, C3R/C86S S100A4; assay: as above; remark: listed apart in the source
S100A4 [4] = target: T1, S100A4; assay: as above

T2 sequence (P26447 2-101 C3R/C86S, one chain of several): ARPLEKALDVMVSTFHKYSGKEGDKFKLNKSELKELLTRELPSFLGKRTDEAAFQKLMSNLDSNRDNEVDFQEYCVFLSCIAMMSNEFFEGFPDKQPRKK
T1 sequence (P26447 2-101, one chain of several): as the sequence (P26447 2-101 C3R/C86S, one chain of several) above, with R2C, S85C counted along it

Structure (SMILES)	IC50 (S100A4 [1]) [nM]	IC50 (C3R/C86S S100A4 [2]) [µM]	IC50 (C3R/C86S S100A4 [3]) [µM]	IC50 (S100A4 [4]) [nM]
O=C1C(SCCO)=C(SCCO)C(=O)c2ccccc21 [NSC 95397, 2,3-bis[2-hydroxyethylsulfanyl]-1,4-naphthoquinone]	1800 ± 600	5.7 ± 0.5	–	–
CC1=C(SCCO)C(=O)c2ccccc2C1=O [NSC 672121, 2-(2-hydroxyethylsulfanyl)-3-methylnaphthalene-1,4-dione]	–	–	5.3 ± 0.6	2700 ± 700

Reference: paper PMC3220277 (2011)
